Seven molecules from patent US20240148821A1, “PHARMACEUTICAL USE OF CYCLIC PEPTIDE COMPOUND” (CHUGAI SEIYAKU KABUSHIKI KAISHA, priority 2021, published 2024) can be followed below.

Numbered stars: 1 amine (or outer) side, 2 acyl side, 3 side chain; on linkers, the order of the positions; unused ones are H or OH. Bridge positions count the residues as written; N and C are the ends. Square brackets hold non-standard residues; d marks the D form. Peptide text beside a SMILES is read from it. * marks the point of attachment. hPhe(3-Cl-4-CF3) = N[C@@H](CCc1ccc(C(F)(F)F)c(Cl)c1)C(=O)O; hPhe(3-F,4-CF3) = N[C@@H](CCc1ccc(C(F)(F)F)c(F)c1)C(=O)O; NMePhe(4-CF3) = CN[C@@H](Cc1ccc(C(F)(F)F)cc1)C(=O)O; NMePhe(4-Me) = CN[C@@H](Cc1ccc(C)cc1)C(=O)O; Phe(2,6-F2) = N[C@@H](Cc1c(F)cccc1F)C(=O)O; NMeAla(cPent) = CN[C@@H](CC1CCCC1)C(=O)O; NMeGly(cPent) = CN[C@H](C(=O)O)C1CCCC1; NMeY = CN[C@@H](Cc1ccc(O)cc1)C(=O)O; NMeCha = CN[C@@H](CC1CCCCC1)C(=O)O; NMeChg = CN[C@H](C(=O)O)C1CCCCC1; NMeF = CN[C@@H](Cc1ccccc1)C(=O)O; NMeI = CC[C@H](C)[C@H](NC)C(=O)O; NMeβAla = CN(CCC(=O)[*:2])[*:1]; NMeD = CN[C@@H](CC(=O)O)C(=O)O; NMeL = CN[C@@H](CC(C)C)C(=O)O; NMeV = CN[C@H](C(=O)O)C(C)C; d(β3hA) = C[C@@H](N)CC(=O)O; NMeAbu = CC[C@H](NC)C(=O)O; NMeA = CN[C@@H](C)C(=O)O; NMeAib = CNC(C)(C)C(=O)O; Nle = CCCC[C@H](N)C(=O)O; Piperidide = C1CCN(*)CC1; Pyrrolidide = C1CCN(*)C1; Ac5c = NC1(C(=O)O)CCCC1; Aze = O=C(O)[C@@H]1CCN1; βAla = NCCC(=O)O; Sar = CNCC(=O)O Some results are limits rather than exact numbers.

This assay has as its system Human pancreatic cancer cell line AsPC-1 (G12D mutation Kras). The assay can be described thus: AsPC-1 cell growth inhibition (AsPC-1 CGI). In kind it is cell-based. Particulars: read-out: AsPC-1 cell growth inhibition, 50% growth inhibitory concentration (IC50 value); 96 hours, CellTiter-Glo, values classified in ranges.
Method: Test compounds were serially dilated with dimethyl sulfoxide, and 200 nL was then dispensed to a U-bottom 96-well plate using Labcyte Echo. […] The cell suspension was dispensed to a. plate containing a test compound at 100 μL per well and incubated at 37° C. in a 5% carbon dioxide gas incubator. 96 hours later, 80 μL of CellTiter-Glo (Promega) was added to each well and fluorescence was measured.
On to `CC[C@H](C)[C@@H]1NC(=O)[C@H](CC(C)C)N(C)C(=O)C[C@@H](C)NC(=O)[C@H](CC(C)C)N(C)C(=O)C2(CCCC2)NC(=O)[C@@H]2CCN2C(=O)[C@H](CCc2ccc(C(F)(F)F)c(F)c2)NC(=O)CN(C)C(=O)[C@H](CC2CCCCC2)N(C)C(=O)CN(C)C(=O)CN(C)C1=O` [Compound 1545] (cyclo([Ac5c][NMeL][d(β3hA)][NMeL]I[Sar][Sar][NMeCha][Sar][hPhe(3-F,4-CF3)][Aze])), for which the IC50 was above 0.5 µM.

In the case of `CC[C@H](C)[C@@H]1NC(=O)[C@H](CC(C)C)N(C)C(=O)C[C@@H](C(=O)N(C)C)N(C)C(=O)[C@H]([C@@H](C)CC)N(C)C(=O)[C@H](C(C)C)NC(=O)[C@@H](C)NC(=O)[C@H](CCc2ccc(C(F)(F)F)c(Cl)c2)NC(=O)CN(C)C(=O)[C@H](Cc2ccc(C)cc2)N(C)C(=O)[C@@H]2CCN2C(=O)[C@H](C)N(C)C1=O` [Compound 915] ([NMeL]I[NMeA][Aze][NMePhe(4-Me)][Sar][hPhe(3-Cl-4-CF3)][dA]V[NMeI][NMeD]-NMe2; lactam N-11), the IC50 was above 0.5 µM.

Consider `CC[C@H](C)[C@@H]1NC(=O)[C@H](CC(C)C)N(C)C(=O)C[C@@H](C(=O)N2CCCC2)N(C)C(=O)[C@H](C2CCCC2)N(C)C(=O)C2(CCCC2)NC(=O)[C@@H]2CCCN2C(=O)[C@H](CCc2ccc(C(F)(F)F)c(Cl)c2)NC(=O)CN(C)C(=O)[C@H](CC2CCCCC2)N(C)C(=O)CN(C)C(=O)CN(C)C1=O` [Compound 1818] ([NMeL]I[Sar][Sar][NMeCha][Sar][hPhe(3-Cl-4-CF3)]P[Ac5c][NMeGly(cPent)][NMeD]-Pyrrolidide; lactam N-11), for which the IC50 was at most 0.02 µM.

Regarding `CC[C@H](C)[C@@H]1NC(=O)CCNC(=O)[C@H](Cc2ccccc2)N(C)C(=O)[C@H](C2CCCCC2)N(C)C(=O)C2(CCCC2)NC(=O)[C@@H]2CCCN2C(=O)[C@H](CCc2ccc(C(F)(F)F)c(Cl)c2)NC(=O)CN(C)C(=O)[C@H](CC2CCCCC2)N(C)C(=O)CN(C)C(=O)CN(C)C1=O` [Compound 1007] (cyclo([Ac5c][NMeChg][NMeF][βAla]I[Sar][Sar][NMeCha][Sar][hPhe(3-Cl-4-CF3)]P)), the IC50 was above 0.5 µM.

`CC[C@H](C)[C@@H]1NC(=O)[C@H](CC(C)C)N(C)C(=O)CCN(C)C(=O)[C@H](C(C)C)N(C)C(=O)C2(CCCC2)NC(=O)[C@@H]2CCCN2C(=O)[C@H](CCc2ccc(C(F)(F)F)c(F)c2)NC(=O)CN(C)C(=O)[C@H](CC2CCCCC2)N(C)C(=O)CN(C)C(=O)CN(C)C1=O` [Compound 879] (cyclo([Ac5c][NMeV][NMeβAla][NMeL]I[Sar][Sar][NMeCha][Sar][hPhe(3-F,4-CF3)]P)): the IC50 was above 0.5 µM.

On to `CCCC[C@@H]1NC(=O)[C@H](Cc2c(F)cccc2F)NC(=O)CN(C)C(=O)[C@H](Cc2ccc(OC)cc2)N(C)C(=O)[C@@H]2CCN2C(=O)[C@H](C)N(C)C(=O)[C@H]([C@@H](C)CC)NC(=O)[C@H](CC)N(C)C(=O)C[C@@H](C(=O)N2CCCCC2)N(C)C(=O)[C@H](CC(C)C)NC(=O)C(C)(C)N(C)C1=O` [Compound 1187] ([NMeAbu]I[NMeA][Aze][NMeY](Me)[Sar][Phe(2,6-F2)][Nle][NMeAib]L[NMeD]-Piperidide; lactam N-11), for which the IC50 is above 0.5 µM.

For `CC[C@H](C)[C@@H]1NC(=O)[C@H](CC2CCCC2)N(C)C(=O)C[C@@H](C(=O)N2CCCC2)N(C)C(=O)[C@H]([C@@H](C)CC)N(C)C(=O)C2(CCCC2)NC(=O)[C@@H]2CCCN2C(=O)[C@H](CCc2ccc(C(F)(F)F)c(Cl)c2)NC(=O)CN(C)C(=O)[C@H](Cc2ccc(C(F)(F)F)cc2)N(C)C(=O)[C@@H]2CCN2C(=O)[C@H](C)N(C)C1=O` [Compound 1183] ([NMeAla(cPent)]I[NMeA][Aze][NMePhe(4-CF3)][Sar][hPhe(3-Cl-4-CF3)]P[Ac5c][NMeI][NMeD]-Pyrrolidide; lactam N-11), the IC50 is at most 0.02 µM.
